Several values for one entry are separate records, joined by “and”; a condition that tells them apart may be missing. Equal values may be shown once.
Experiments:
HDAC6-nanoLuc = target: T1, HDAC6-nanoLuc (Homo sapiens, UniProt Q9UBN7); test: nanoBRET target engagement assay, HDAC6; format: cell-based; details: HEK293T/17 cells stably expressing HDAC6-nanoLuc, 2 h
T1 sequence (Q9UBN7 1-1215): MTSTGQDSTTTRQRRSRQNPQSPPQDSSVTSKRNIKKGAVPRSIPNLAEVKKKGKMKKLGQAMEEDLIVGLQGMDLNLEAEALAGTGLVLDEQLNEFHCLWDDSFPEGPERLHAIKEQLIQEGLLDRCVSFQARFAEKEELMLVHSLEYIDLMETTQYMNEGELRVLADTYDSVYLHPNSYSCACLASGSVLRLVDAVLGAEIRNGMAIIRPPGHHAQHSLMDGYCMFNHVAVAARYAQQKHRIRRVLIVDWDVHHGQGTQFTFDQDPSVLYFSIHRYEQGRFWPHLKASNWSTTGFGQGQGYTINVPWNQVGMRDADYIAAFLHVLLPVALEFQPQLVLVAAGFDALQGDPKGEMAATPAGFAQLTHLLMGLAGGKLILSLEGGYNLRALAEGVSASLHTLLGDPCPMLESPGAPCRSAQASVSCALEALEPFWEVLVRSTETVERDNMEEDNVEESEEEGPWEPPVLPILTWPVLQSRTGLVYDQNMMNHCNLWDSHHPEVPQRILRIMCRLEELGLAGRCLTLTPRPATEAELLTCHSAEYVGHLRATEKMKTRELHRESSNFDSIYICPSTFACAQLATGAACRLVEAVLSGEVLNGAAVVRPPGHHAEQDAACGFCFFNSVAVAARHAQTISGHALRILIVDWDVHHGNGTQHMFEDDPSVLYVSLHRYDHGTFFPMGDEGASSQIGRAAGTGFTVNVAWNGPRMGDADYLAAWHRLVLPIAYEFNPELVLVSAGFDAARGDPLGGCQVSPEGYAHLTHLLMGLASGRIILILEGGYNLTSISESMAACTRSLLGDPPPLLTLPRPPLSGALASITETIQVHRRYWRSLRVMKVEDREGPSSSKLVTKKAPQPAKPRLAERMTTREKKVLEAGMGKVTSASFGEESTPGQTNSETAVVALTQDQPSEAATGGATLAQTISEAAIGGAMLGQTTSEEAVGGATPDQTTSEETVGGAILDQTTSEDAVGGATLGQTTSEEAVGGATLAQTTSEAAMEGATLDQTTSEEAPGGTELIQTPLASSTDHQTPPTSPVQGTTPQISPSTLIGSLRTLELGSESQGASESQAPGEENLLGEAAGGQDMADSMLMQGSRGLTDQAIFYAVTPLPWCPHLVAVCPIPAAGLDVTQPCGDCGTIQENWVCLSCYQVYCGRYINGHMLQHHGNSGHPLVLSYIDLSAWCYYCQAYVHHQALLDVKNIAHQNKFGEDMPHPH

histone H3 acetylation = test: Histone H3 (K9/K14) acetylation in RPMI-8226 cells by Western blotting; format: cell-based; details: 6 h, Western blot
RPMI-8226 lymphoblasts = test: MTT viability assay; format: cell-based; details: RPMI-8226 cells, 48 h, MTT
Experimental: RPMI-8226 lymphoblasts (ATTC #CCL-155) were used to assess the cytotoxicity of tested compounds. […] Dilution series of tested inhibitors were prepared as 10x stock solutions in PBS and 10 μL was added to cells and incubated under a 5% CO2 atmosphere at 37 °C, for 2 days. Following incubation, 10 μL of MTT reagent (3-(4,5-dimethylthiazol-2-yl)-2,5-diphenyltetrazolium bromide, 5 mg/mL in PBS, Sigma Aldrich) was added to each well and incubated for 90 min, 37 °C, 5% CO2. […]

all other HDAC isoforms = test: In vitro isotype selectivity screening against panel of zinc-dependent human HDACs; format: biochemical
Experimental: Customized assays were used for individual HDAC isoforms to reflect their distinct substrate specificity. All reactions were carried out in the activity buffer comprising 50 mM HEPES, 140 mM NaCl, 10 mM KCl, pH 7.4 supplemented with 1 mg/mL bovine serum albumin (BSA) and 1 mM tris(2-carboxyethyl) phosphine (TCEP).
HDACs 1–9, 11: Assays were performed essentially as described previously. Briefly, the Ac-GAK-Ac-AMC substrate was used to determine the activity of HDACs 1, 2, 3, and 6; and the Boc-Lys(TFA)-AMC substrate was used for HDACs 4, 5, 7, 8, 9, and 11 (both substrates Bachem, Bubendorf, Switzerland). […] Released aminometyl coumarine was quantified using a CLARIOstar plate reader (BMG Labtech GmbH, Ortenberg, Germany) at λex/λem = 365/440 nm.
HDAC10: Recombinant human HDAC10 (0.5 nM) in the reaction buffer was preincubated with a 3-fold dilution series of a tested inhibitor at 37 °C for 15 min and the reaction initiated by the addition of a substrate (N8-acetylspermidine labeled with fluorescein; 10 µM final concentration) in a total volume of 50 µL. […] Reaction mixtures were analyzed by RP-HPLC with a Kinetex 2.6 μm XB-C18 100 Å column with a fluorescence detector set to λEX/λEM = 492/516.
HDAC inhibition was calculated using corresponding non-inhibited reactions as a control. […]

Compound | EC50 (HDAC6-nanoLuc) [nM] | effect on histone H3 (K9/K14) acetylation, class I HDAC inhibition (histone H3 acetylation) | effect on cell viability (RPMI-8226 lymphoblasts) | selectivity for HDAC6 over all other HDAC isoforms (all other HDAC isoforms)
O=C(NO)c1cnc(NC2(c3cccc(F)c3)CCCCC2)nc1 [ACY-775] | 270 |  |  | 
CS(=O)(=O)N(Cc1ccc(-c2nnc(C(F)F)o2)cn1)c1cccc(Cl)c1 [compound 7, N-(3-chlorophenyl)-N-((5-(5-(difluoromethyl)-1,3,4-oxadiazol-2-yl)pyridin-2-yl)methyl)methanesulfonamide] | 160 | does not increase H3 acetylation even at the highest concentrations | less pronounced effects on cell viability at high inhibitor concentrations | 10,000 fold and > 10,000 fold
